Measured values published in patent publication EP4772505A1, “COMPOUND FOR DEGRADING ANDROGEN RECEPTOR AND MEDICAL USE THEREOF” (Ubix Therapeutics, Inc., priority 2023, dated 2025).
Where two headings read alike, the source gives them in different places.

Target: T1, Androgen Receptor (AR) (Homo sapiens, UniProt P10275)
T1 sequence (P10275 1-920): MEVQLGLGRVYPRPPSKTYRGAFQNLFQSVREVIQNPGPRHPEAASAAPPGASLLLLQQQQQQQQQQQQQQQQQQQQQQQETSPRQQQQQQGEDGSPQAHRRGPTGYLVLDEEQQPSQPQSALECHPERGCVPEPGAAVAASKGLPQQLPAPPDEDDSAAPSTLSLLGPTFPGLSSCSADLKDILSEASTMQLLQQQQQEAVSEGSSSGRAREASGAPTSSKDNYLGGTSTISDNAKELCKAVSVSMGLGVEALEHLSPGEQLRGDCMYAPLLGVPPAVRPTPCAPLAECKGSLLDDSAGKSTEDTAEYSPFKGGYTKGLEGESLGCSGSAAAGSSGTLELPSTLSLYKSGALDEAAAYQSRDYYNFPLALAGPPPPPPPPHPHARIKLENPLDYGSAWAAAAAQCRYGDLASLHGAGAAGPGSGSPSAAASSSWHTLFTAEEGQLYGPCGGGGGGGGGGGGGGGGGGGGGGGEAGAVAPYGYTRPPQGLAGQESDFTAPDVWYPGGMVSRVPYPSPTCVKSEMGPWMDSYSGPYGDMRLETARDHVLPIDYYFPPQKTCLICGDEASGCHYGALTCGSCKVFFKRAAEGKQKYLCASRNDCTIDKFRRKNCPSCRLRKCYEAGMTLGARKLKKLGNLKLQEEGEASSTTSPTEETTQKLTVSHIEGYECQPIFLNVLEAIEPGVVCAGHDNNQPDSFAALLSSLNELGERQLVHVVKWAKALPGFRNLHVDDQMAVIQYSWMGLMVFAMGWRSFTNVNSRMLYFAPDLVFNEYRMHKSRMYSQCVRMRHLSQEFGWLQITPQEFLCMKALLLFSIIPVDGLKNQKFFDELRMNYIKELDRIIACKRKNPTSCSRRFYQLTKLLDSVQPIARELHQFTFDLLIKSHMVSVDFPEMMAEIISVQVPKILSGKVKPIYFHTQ
Experiment: Measurement of AR protein degradation in VCaP cells by Western blotting
Format: cell-based
Set-up: endogenous in cells; host or cells: VCaP
Conditions: read-out: AR degradation in VCaP cells (%)
Method: The amount of AR protein present in LNCaP or VCaP cells was measured after treating them with the synthesized compound. The amount of AR protein was measured using Western blotting. The protocol for the experiments using LNCaP or VCaP cells was as follows.
[Culture] LNCaP cells were resuspended in RPMI1640 medium + HEPES (Hyclone, SH30255.01), 10% FBS (Hyclone, SV30207.02), and 1% Penicillin-streptomycin (Welgene, LS 202-02). 3 x 10^5 cells/mL were seeded in 12-well plates (1 mL per well) and cultured for 3 days. VCaP cells were resuspended in IMDM MEDIUM (Hyclone, SH30228.01), 20% FBS (Hyclone, SV30207.02), and 1% Penicillin-streptomycin (Welgene, LS 202-02), seeded at 9 x 10^5/mL in 1 mL per 12-well plate, and cultured for 3 days.
[Compound Treatment] 10 µL of 100x stock (e.g., 0.1, 1, 10 µM) compound solution at the final compound treatment concentration (e.g., 0.001, 0.01, 0.1 µM) was added to each well in 1 mL media, and cells were harvested after 20 hours. For DC50 measurement, 100x stock (0.01, 0.1, 1, 10, 100, 1000 µM) compound solutions at the final compound treatment concentration (0.0001, 0.001, 0.01, 0.1, 1, 10 µM) were used.
[Cell lysis] The cell pellet was suspended using 1% SDS lysis buffer (50 mM Tris, 1 mM EDTA, 1% SDS, pH 8.0, 0.5 mM PMSF, 1x Protease/Phosphatase inhibitor Cocktail (Cell Signaling Technology, 5872S)), and sonication (70% AMP, 10 cycles (30 sec ON/59 sec OFF)) was performed. After centrifugation at 4°C and 20,000 g for 20 minutes, the cell lysate was obtained and transferred to a new tube.
[Protein Quantification] A BCA protein assay (SMART™ BCA Protein Assay Kit, iNtRON Biotechnology, 21071) was performed using a 96-well microplate. 5 µL of cell lysate and 5 µL of 1% SDS lysis buffer were added to each well of the 96-well plate, followed by an additional 200 µL of BCA reagent (Reagent A: Reagent B = 50:1). The wells were incubated at 37°C for 30 minutes and cooled to room temperature for 10 minutes. After shaking for 10 seconds, the absorbance was measured at a wavelength of 562 nm. The unknown protein concentration was determined using a BSA standard curve (0, 0.125, 0.25, 0.5, 1, 2 mg/mL). Western blotting samples were prepared by mixing cell lysate, 1% SDS lysis buffer, 4x NuPAGE™ LDS Sample buffer (Invitrogen, NP0008), and 10X NuPAGE™ Sample Reducing Agent (Invitrogen, NP0009) and boiling at 70°C for 10 minutes.
[Electrophoresis] 10 µg of protein sample was loaded into each well of a NuPAGE™ 4 to 12%, Bis-Tris, 1.0 mm Mini Protein Gel, 15-well, 17-well, or 26-well (Invitrogen, NP0323BOX, NP0329BOX, or WG1403BOX) and electrophoresed for 40 minutes using NuPAGE™MES SDS Running Buffer (Invitrogen, NP0002) at 200 V (constant V).
[Transfer] Transfer was performed for 15 or 18 minutes using the electrophoresed gel and the Trans-Blot® Turbo™ Transfer Starter System (Bio-RAD, #17001918, Mini Nitrocellulose) at 1.3 A (constant A) and 25 V (limit V). To confirm protein transfer, 15 mL of Ponceau S solution (Sigma, P7170-1L) was used to stain for 1 minute, and then washed to check the degree of transfer.
[Blocking] The membrane for AR and GAPDH detection was blocked with 5% skim milk/0.2% TBST (Skim milk: BD, 232100/ 20X TBS: Biosesang, TR2008-100-00/ 10% Tween 20 Solution: Bio-RAD, #161-0781) for 45 minutes.
[Antibodies and Detection] Primary AR antibody (Androgen Receptor: CST, 5153S) was mixed with 5% skim milk/0.2% TBST at a ratio of 1:1,000 and reacted at room temperature for 3 hours or at 4°C overnight. Primary GAPDH antibody (CST, 2118S) was mixed with 5% skim milk/0.2% TBST at a ratio of 1:2,000 and reacted at room temperature for 3 hours or at 4°C overnight. Afterwards, TBST (0.2% Tween 20) was used for washing three times every 5 minutes. Secondary antibody to AR antibody, Anti-rabbit IgG, HRP-linked Antibody (CST, 7074S), was mixed with 5% skim milk/0.2% TBST at a ratio of 1:5,000 and reacted at room temperature for 45 minutes. […]

Row | Structure (SMILES) | Dmax at 0.01 µM (10 nM compound, 20 hours, VCaP cells) [%] | Dmax at 0.1 µM (100 nM compound, 20 hours, VCaP cells) [%] | Dmax at 0.01 µM (VCaP, 20 h) [%] | Dmax at 0.1 µM (VCaP, 20 h) [%]
1 | COc1cc(N2CCC(C(=O)Nc3ccc(OC4CCN(CC5CCN(c6ccc(NC7CCC(=O)NC7=O)cc6F)CC5)CC4)nn3)CC2)ccc1C#N (stereo not shown) [Example 16, 1-(4-cyano-3-methoxyphenyl)-N-(6-((1-((1-(4-((2,6-dioxopiperidin-3-yl)amino)-2-fluorophenyl)piperidin-4-yl)methyl)piperidin-4-yl)oxy)pyridazin-3-yl)piperidine-4-carboxamide] | 99 | 100 |  | 
2 | N#Cc1ccc(N2CCC(C(=O)Nc3ccc(OC4CCN(CC5CCN(c6ccc(NC7CCC(=O)NC7=O)cc6Cl)CC5)CC4)cn3)CC2)cc1C(F)(F)F (stereo not shown) [Example 17, N-(5-((1-((1-(2-chloro-4-((2,6-dioxopiperidin-3-yl)amino)phenyl)piperidin-4-yl)methyl)piperidin-4-yl)oxy)pyridin-2-yl)-1-(4-cyano-3-(trifluoromethyl)phenyl)piperidine-4-carboxamide] |  |  | 75 | 97
